In US6406856B1, “Biosensor” (Aberdeen University, priority 1998, dated 2002):

How the values were obtained:
[1] = system: S. cerevisiae pPLUCΔP biosensor; test: S. cerevisiae pPLUCΔP biosensor luminescence toxicity assay; conditions: for detection of toxic substance by change in luminescence: 10 min exposure, toxicant at pH 5.5, FIGS. 5 and 6
Method: In vivo luciferase activity assays using S. cerevisiae require acidification to allow the substrate for the light reaction (luciferin) to freely enter intact cells. Therefore, a two-step assay procedure was designed to incorporate separate toxicity analysis without pH adjustment and subsequent acidification for luminescence quantification. In preparation for the assay, S. cerevisiae cells were harvested at peak luminescence (around 3 to 4×10^8 cells/ml), centrifuged at 700 g (3000 rpm) and washed twice in 5 mM KCl; keeping the original volume constant for the first wash, but halved for second wash (allowing for modified dilution in assay). The first step (exposure), 50 μl of washed S. cerevisiae cells are added to a 450 μl sample (pH generally not important). In an alternative procedure the S. cerevisiae can also be resuspended in water rather than in 5 mM Kcl. The second step (acificiation), 500 μl citrate phosphate buffer (pH2.5), also containing the luciferan (0.1 mM final concentration in 1 ml sample), are added to make up 1 ml total volume for subsequent luminescence quantification. The exposure time is generally 10 minutes, but this can be lengthened or shortened depending on assay requirements (e.g. FIGS. 10a, 10b and 11). The assay allows for the full pH durability of S. cerevisiae to be exploited as prior pH adjustment of samples is not required. Luminescence of the sample containing cuvettes are compared to a blank containing diluent(s) used in the assay. This blank defines 100% luminescence.
Dilutions were then made of the stock solutions using deionised water adjusted to pH5.5, as above. The cells were harvested at peak luminescence, centrifuged at 700 g and washed twice in 5 M KCl; keeping the original volume constant. The toxicant (450 μl) was added to each cuvette. The final volume was then made up to 500 μl using 3 to 4×10^7 cells. After 10 min, 500 μl of citrate phosphate buffer (pH 2.5) containing 5 μl of 20 mM luciferin was added to each cuvette and the bioluminescence was monitored.

[2] = system: non-dividing LucΔ S. cerevisiae strain cells; test: Non-dividing cell assay, light output, 96-well plates; type: cell-based, Saccharomyces cerevisiae; conditions: dilutions in 4.5% ethanol, cells in ddH2O, exposure 3, 5, 7, 9 h
Method: (§1) The following procedure was designed to monitor the effect of increasing the exposure time up to 9 hours and to determine the different responses of dividing and non-dividing biosensor cells to the presence of DNA-damaging agents. For assay preparation, the diluent used was ethanol at 4.5% final concentration. All ethidium bromide dilution standards were prepared in glassware. […] The black 96-well plates were covered with a plate sealer and incubated at 30° C. before and between readings. […] Additional of 100 μl citrate phosphate buffer (pH 2.5), containing 0.2 mM luciferin, was performed at each time point before luminescence quantification in a Lucy Anthos 1 luminometer using the Stingray (v2.0b31) software package. Following luminescence quantification 100 μl was removed from the blank well in the dividing assays for OD600 measurements and cell counts. […]
In FIG. 14, the effect of ethidium bromide on non-dividing cells was measured by recording the light output from cells in wells containing ethidium bromide dilutions prepared in 4.5% ethanol. […]

[3] = system: dividing LucΔ S. cerevisiae strain cells; test: Dividing cell assay, luciferase activity, 96-well plates; type: cell-based, Saccharomyces cerevisiae; conditions: dilutions in 4.5% ethanol, 1x SC (-ura), exposure 3, 5, 7, 9 h
Method: as §1
Thus in FIG. 13, the effect of ethidium bromide on dividing cells was measured by recording luciferase activity from cells in wells containing ethidium bromide dilutions prepared in 4.5% ethanol. […]

## Oc1cc(Cl)cc(Cl)c1 [3,5-dichlorophenol]
[1]
  detection of toxic substance by change in luminescence: can detect

## [Cu] [copper]
[1]; 10 min copper exposure, sensor cells used after 48 hours, FIG. 11
  detection of copper after 48 hours growth of the biosensor: still actively detecting
[1]
  detection of toxic substance by change in luminescence: can detect

## CC[n+]1c(-c2ccccc2)c2cc(N)ccc2c2ccc(N)cc21 [ethidium bromide]
[2]
  effect on non-dividing cells (light output): no clear toxic effect
[3]
  effect on dividing cells (luciferase activity): clear decrease in cell division
